Values after ≈ are worked out from the molar mass of the structure shown.
Assays:
[1] = test system: Staphylococcus epidermidis; experiment: Antibacterial activity against methicillin-sensitive Staphylococcus epidermidis ATCC 12228 by agar method; assay type: functional
[2] = test system: Staphylococcus epidermidis; experiment: Antibacterial activity against methicillin-resistant Staphylococcus epidermidis 16-5 by agar method; assay type: functional
[3] = test system: Staphylococcus aureus; experiment: Antibacterial activity against methicillin-sensitive Staphylococcus aureus ATCC 29213 by agar method; assay type: functional
[4] = test system: Staphylococcus aureus; experiment: Antibacterial activity against methicillin-resistant Staphylococcus aureus ATCC 33591 by agar method; assay type: functional
[5] = test system: Enterococcus faecalis; experiment: Antibacterial activity against Vancomycin-sensitive Enterococcus faecalis ATCC 29212 by agar method; assay type: functional
[6] = test system: Enterococcus faecalis; experiment: Antibacterial activity against vancomycin-resistant Enterococcus faecalis ATCC 51299 by agar method; assay type: functional
[7] = test system: Escherichia coli; experiment: Antibacterial activity against ESBLs positive Escherichia coli ATCC 35218 by agar method; assay type: functional
[8] = test system: Escherichia coli; experiment: Antibacterial activity against ESBLs negative Escherichia coli ATCC 25922 by agar method; assay type: functional
[9] = test system: Escherichia coli; experiment: Antibacterial activity against NDM-1 positive Escherichia coli ATCC 2469 by agar method; assay type: functional
[10] = test system: Acinetobacter baumannii; experiment: Antibacterial activity against carbapenem-resistant Acinetobacter baumannii 16-33 by agar method; assay type: functional
[11] = test system: A549; experiment: Cytotoxicity against human A549 cells; assay type: cell-based

Structure (SMILES)	MIC [1] [µg/mL]	MIC [2] [µg/mL]	MIC [3] [µg/mL]	MIC [4] [µg/mL]	MIC [5] [µg/mL]	MIC [6] [µg/mL]	MIC [7] [µg/mL]	MIC [8] [µg/mL]	MIC [9] [µg/mL]	MIC [10] [µg/mL]	IC50 [11] [µM]
O=C(/C=C/c1ccc2ccccc2n1)c1ccncc1	32 (≈ 123 µM)	32 (≈ 123 µM)	32 (≈ 123 µM)	32 (≈ 123 µM)	32 (≈ 123 µM)	32 (≈ 123 µM)	> 32	> 32	> 32	> 32	–
O=C(/C=C/c1cnc2ccccc2c1)c1ccncc1	8 (≈ 30.7 µM)	8 (≈ 30.7 µM)	8 (≈ 30.7 µM)	8 (≈ 30.7 µM)	32 (≈ 123 µM)	16 (≈ 61.5 µM)	> 128	> 128	> 128	128 (≈ 492 µM)	–
O=C(/C=C/c1cnc2ccccc2c1)c1cccnc1	16 (≈ 61.5 µM)	32 (≈ 123 µM)	16 (≈ 61.5 µM)	32 (≈ 123 µM)	32 (≈ 123 µM)	32 (≈ 123 µM)	> 128	> 128	> 128	128 (≈ 492 µM)	–
O=C(/C=C/c1ccc2ccccc2c1)c1cccnc1	> 128	> 128	> 128	> 128	> 128	> 128	> 128	> 128	> 128	> 128	–
O=C(/C=C/c1cccnc1)c1ccc2ccccc2c1	4 (≈ 15.4 µM)	16 (≈ 61.7 µM)	8 (≈ 30.9 µM)	8 (≈ 30.9 µM)	> 128	> 128	> 128	> 128	> 128	> 128	–
O=C(/C=C/c1ccncc1)c1ccc2ccccc2c1	4 (≈ 15.4 µM)	8 (≈ 30.9 µM)	8 (≈ 30.9 µM)	4 (≈ 15.4 µM)	> 128	> 128	> 128	> 128	> 128	> 128	–
O=C(/C=C/c1ccc2ccc(C(F)(F)F)cc2n1)c1ccccn1	4 (≈ 12.2 µM)	4 (≈ 12.2 µM)	1 (≈ 3.05 µM)	2 (≈ 6.09 µM)	> 128	128 (≈ 390 µM)	> 128	> 128	> 128	128 (≈ 390 µM)	10.2
O=C(/C=C/c1ccc2ccc(C(F)(F)F)cc2n1)c1cccnc1	1 (≈ 3.05 µM)	2 (≈ 6.09 µM)	1 (≈ 3.05 µM)	1 (≈ 3.05 µM)	4 (≈ 12.2 µM)	4 (≈ 12.2 µM)	> 32	> 32	> 32	> 32	9.8
O=C(/C=C/c1ccc2ccccc2n1)c1ccc2c(c1)OCO2	> 128	> 128	> 128	> 128	> 128	> 128	> 128	> 128	> 128	> 128	–
O=C(/C=C/c1ccc2ccc(C(F)(F)F)cc2n1)c1ccc(O)c(O)c1	16 (≈ 44.5 µM)	16 (≈ 44.5 µM)	32 (≈ 89.1 µM)	32 (≈ 89.1 µM)	> 128	> 128	> 128	> 128	> 128	> 128	–
O=C(/C=C/c1ccc2c(C(F)(F)F)cccc2n1)c1ccncc1	2 (≈ 6.09 µM)	4 (≈ 12.2 µM)	1 (≈ 3.05 µM)	1 (≈ 3.05 µM)	> 128	> 128	> 128	> 128	> 128	128 (≈ 390 µM)	45.4
O=C(/C=C/c1ccccn1)c1ccc2ccc(C(F)(F)F)cc2n1	2 (≈ 6.09 µM)	4 (≈ 12.2 µM)	4 (≈ 12.2 µM)	2 (≈ 6.09 µM)	32 (≈ 97.5 µM)	> 32	> 32	> 32	> 32	> 32	11.2
O=C(/C=C/c1ccc2c(C(F)(F)F)cccc2n1)c1ccccn1	2 (≈ 6.09 µM)	2 (≈ 6.09 µM)	1 (≈ 3.05 µM)	1 (≈ 3.05 µM)	> 128	> 128	> 128	> 128	> 128	128 (≈ 390 µM)	43.1
COCOc1ccc(C(=O)/C=C/c2ccc3ccccc3n2)cc1OCOC	4 (≈ 10.5 µM)	8 (≈ 21.1 µM)	8 (≈ 21.1 µM)	8 (≈ 21.1 µM)	> 128	> 128	> 128	> 128	> 128	> 128	–
O=C(/C=C/c1ccc2ncccc2c1)c1ccccn1	8 (≈ 30.7 µM)	8 (≈ 30.7 µM)	8 (≈ 30.7 µM)	8 (≈ 30.7 µM)	32 (≈ 123 µM)	32 (≈ 123 µM)	> 128	> 128	> 128	128 (≈ 492 µM)	–
O=C(/C=C/c1ccc2ccc(C(F)(F)F)cc2n1)c1ccccc1	> 128	> 128	> 128	> 128	> 128	> 128	> 128	> 128	> 128	> 128	–

Structure (SMILES)	MIC [1] [µg/mL]	MIC [2] [µg/mL]	MIC [3] [µg/mL]	MIC [4] [µg/mL]	MIC [5] [µg/mL]	MIC [6] [µg/mL]	MIC [7] [µg/mL]	MIC [8] [µg/mL]	MIC [9] [µg/mL]	MIC [10] [µg/mL]	IC50 [11] [µM]
O=C(/C=C/c1cccnc1)c1ccc2ccc(C(F)(F)F)cc2n1	> 32	> 32	> 32	32 (≈ 97.5 µM)	> 32	> 32	> 32	> 32	> 32	> 32	–
O=C(/C=C/c1ccc2ccccc2c1)c1ccccn1	> 128	> 128	> 128	> 128	> 128	> 128	> 128	> 128	> 128	> 128	–
C[n+]1ccc(C(=O)/C=C/c2ccc3ccccc3c2)cc1.[I-]	128	128	128	64	> 128	> 128	> 128	> 128	> 128	> 128	–
O=C(/C=C/c1ccc2ccccc2c1)c1ccncc1	> 128	> 128	> 128	> 128	> 128	> 128	> 128	> 128	> 128	> 128	–
O=C(/C=C/c1ccc2ncccc2c1)c1cccnc1	8 (≈ 30.7 µM)	8 (≈ 30.7 µM)	16 (≈ 61.5 µM)	16 (≈ 61.5 µM)	32 (≈ 123 µM)	32 (≈ 123 µM)	> 128	> 128	> 128	128 (≈ 492 µM)	–
O=C(/C=C/c1ccc2ccc(C(F)(F)F)cc2n1)c1ccc2c(c1)OCO2	> 128	> 128	> 128	> 128	> 128	> 128	> 128	> 128	> 128	> 128	–
C[n+]1cccc(C(=O)/C=C/c2ccc3ccccc3c2)c1.[I-]	> 128	> 128	> 128	> 128	> 128	> 128	> 128	> 128	> 128	> 128	–
O=C(/C=C/c1ccncc1)c1ccc2ccc(C(F)(F)F)cc2n1	> 32	> 32	> 32	16 (≈ 48.7 µM)	> 32	> 32	> 32	> 32	> 32	> 32	–
C[n+]1cccc(/C=C/C(=O)c2ccc3ccccc3c2)c1.[I-]	64	> 128	128	128	> 128	> 128	> 128	> 128	> 128	> 128	–
O=C(/C=C/c1ccc2ncccc2c1)c1ccncc1	16 (≈ 61.5 µM)	16 (≈ 61.5 µM)	8 (≈ 30.7 µM)	8 (≈ 30.7 µM)	32 (≈ 123 µM)	32 (≈ 123 µM)	> 128	> 128	> 128	128 (≈ 492 µM)	–
O=C(/C=C/c1cnc2ccccc2c1)c1ccccn1	8 (≈ 30.7 µM)	8 (≈ 30.7 µM)	8 (≈ 30.7 µM)	8 (≈ 30.7 µM)	32 (≈ 123 µM)	32 (≈ 123 µM)	> 128	> 128	> 128	128 (≈ 492 µM)	–
O=C(/C=C/c1ccc2ccccc2n1)c1ccc(O)c(O)c1	16 (≈ 54.9 µM)	32 (≈ 110 µM)	32 (≈ 110 µM)	32 (≈ 110 µM)	> 64	> 64	> 64	> 64	> 64	> 64	–
C[n+]1cccc(C(=O)/C=C/c2ccc3ccc(C(F)(F)F)cc3n2)c1.[I-]	64	64	64	32	128	128	> 128	> 128	> 128	> 128	–
COCOc1ccc(C(=O)/C=C/c2ccc3ccc(C(F)(F)F)cc3n2)cc1OCOC	> 64	> 64	> 64	> 64	> 64	> 64	> 64	> 64	> 64	> 64	–
C[C@H]1COc2c(N3CCN(C)CC3)c(F)cc3c(=O)c(C(=O)O)cn1c23.C[C@H]1COc2c(N3CCN(C)CC3)c(F)cc3c(=O)c(C(=O)O)cn1c23.O [LEVOFLOXACIN]	0.12	8	0.12	0.12	1	0.5	–	–	16	2	–

Reference: ChEMBL document CHEMBL4814028, “Design, synthesis, and antibacterial evaluation of PFK-158 derivatives as potent agents against drug-resistant bacteria” (Bioorg Med Chem Lett, 2021)
